≈ marks a conversion by molar mass, not a printed value. Read-outs that look alike come from different tables or passages of the source.
Tests used:
Type in all cases: cell-based
[1] = system: Candida Glabrata (ATCC 90030); assay: Assessment of the mechanism of action: antifungal activity with or without 100 μM Fe3+; settings: 100 μM FeCl3 in the test medium; OD at 540 nm
Experimental: To verify if the compounds mechanism of action is the chelation of iron ions, the MIC determination with Candida glabrata (ATCC 90030) strain was performed by the addition of excessive iron ions (100 μM FeCl3) in the test medium. The viability of cells exposed to drugs, with or without the metal ion Fe^3+, was evaluated by the OD measure at 540 nm.
Compounds described in Example 2, E8 and NiK-29298 were evaluated in presence and in absence of 100 μM (100 micromoles) Fe^3+.
In all figures, the lines and dots represent the percent inhibition of the fungal growth (in ordinate) by adding different concentrations of antifungal agents (in abscissa). Blue lines and dots are the experiments performed without iron supplementation, while red lines and dots represent the results of the experiments performed in presence of 100 μM Fe^3+. […] Conversely, Fe^3+ has no effect on amphotericin, an antifungal agent known in the art to have a mechanism of action different from that of ciclopirox.

[2] = system: Scopulariopsis Brevicaulis (ATCC 36840); assay: Broth micro-dilution antifungal susceptibility test (MIC); settings: ATCC36840, 120 h, 35° C.
Experimental: (§1) Trichophyton Rubrum (ATCC 28188, PBI International); Trichophyton Mentagrophytes (ATCC 9533, PBI International); Aspergillus Niger (ATCC 16404, PBI International); Scopulariopsis Brevicaulis (ATCC 36840, DSMZ); Candida Albicans (ATCC 90028, PBI International); Candida Glabrata (ATCC 90030, DSMZ).
(§2) Compounds' minimal inhibition concentration (MIC) was determined through broth micro-dilution susceptibility test using a method developed in agreement with the National Committee for Clinical Laboratory Standards (NCCLS) (National Committee for Clinical Laboratory Standards. Reference Method for Broth Dilution Antifungal Susceptibility Testing of Yeasts; Approved standard-Second Edition M27-A2. 2002; Vol. 22, No. 15) (National Committee for Clinical Laboratory Standards. Reference Method for Broth Dilution Antifungal Susceptibility Testing of Filamentous Fungi; Approved standard M38-A. 2002; Vol. 22, No. 16).
(§3) Assays were carried out in RPMI 1640 with L-glutamine medium buffered to pH 7 with 0.165M 3-(N-morpholino)propanesulfonic acid (MOPS) and 10M NaOH and supplemented with 18 g glucose/liter. The tests were performed using 96 well sterile plates (inoculum size of 1×10^5 CFU/mL). Compounds stock solutions were prepared at 12.8 mg/mL in 100% DMSO. A series of twofold dilutions were prepared in plate using RPMI 1640. Final concentrations ranged from 0.125 to 128 μg/mL at 1% DMSO.

[3] = system: Candida Albicans (ATCC 90028); assay: as above; settings: 35° C.
Experimental: as §1, §2, §3

[4] = system: Trichophyton Rubrum (ATCC 28188); assay: as above; settings: ATCC28188, 120 h, 35° C.
Experimental: as §1, §2, §3

[5] = system: Aspergillus Niger (ATCC 16404); assay: as above; settings: ATCC16404, 120 h, 35° C.
Experimental: as §1, §2, §3

[6] = system: Candida Glabrata (ATCC 90030); assay: as above; settings: Nakaseomyces glabratus, ATCC90030, 48 h, 35° C.
Experimental: as §1, §2, §3

[7] = system: Trichophyton Mentagrophytes (ATCC 9533); assay: as above; settings: ATCC9533, 120 h, 35° C.
Experimental: as §1, §2, §3

[8] = system: 6 strains tested, including yeasts, dermatophytes and molds; assay: Antifungal spectrum over the 6 strains tested (MIC test); settings: 6 strains: yeasts
Experimental: as §1, §2, §3

[9] = geometric means of two single experiments, five days, Table 3
[10] = ATCC90028, geometric means of two single experiments, 48 h, Table 3
[11] = geometric means of two single experiments, five days, Table 3, read-out: MIC Trycophyton Rubrum ATCC 28188
[12] = geometric means of two single experiments, Table 3
[13] = geometric means of two single experiments, five days, Table 3, read-out: MIC Tricophyton Mentagrophytes ATCC 9533
[14] = comparison compounds, Table 5, five days
[15] = ATCC90028, comparison compounds, Table 5, 48 h
[16] = comparison compounds, Table 5, five days, read-out: MIC Trycophyton Rubrum ATCC 28188
[17] = comparison compounds, Table 5, five days, read-out: MIC Tricophyton Mentagrophytes ATCC 9533

## C[C@@H]1[C@H](O)[C@@H](C)/C=C/C=C/C=C/C=C/C=C/C=C/C=C/[C@H](O[C@@H]2O[C@H](C)[C@@H](O)[C@H](N)[C@@H]2O)C[C@@H]2O[C@](O)(C[C@@H](O)C[C@@H](O)[C@H](O)CC[C@@H](O)C[C@@H](O)CC(=O)O[C@H]1C)C[C@H](O)[C@H]2C(=O)O [amphotericin]
[1]
  Effect of Fe3+ on antifungal activity: no effect

## O=C(NCc1ccc(N2CCOCC2)cc1)c1ccc2cccnc2c1O [Example 10, 8-Hydroxy-N-(4-morpholinobenzyl)quinoline-7-carboxamide]
[2]; [9]
  MIC: 4 µg/mL (≈ 11 µM)
[3]; [10]
  MIC: 4 µg/mL (≈ 11 µM)
[4]; [11]
  MIC: 1 µg/mL (≈ 2.75 µM)
[5]; [9]
  MIC: 0.5 µg/mL (≈ 1.38 µM)
[6]; [12]
  MIC: 2 µg/mL (≈ 5.5 µM)
[7]; [13]
  MIC: 0.5 µg/mL (≈ 1.38 µM)

## O=C(NCc1ccc(OCc2ccccc2)cc1)c1ccc2ncccc2c1 [Example E8, reference compound]
[1]
  Effect of Fe3+ on antifungal activity: not inhibited
[2]; [14]
  MIC: > 128 µg/mL
[3]; [15]
  MIC: 1.41 µg/mL (≈ 3.83 µM)
[4]; [16]
  MIC: > 128 µg/mL
[5]; [14]
  MIC: 2 to 128 µg/mL (≈ 5.43 to 347 µM)
[6]; comparison compounds, Table 5
  MIC: 1 µg/mL (≈ 2.71 µM)
[7]; [17]
  MIC: 75 µg/mL (≈ 204 µM)
[8]
  Spectrum of antifungal activity on the strains tested: active only on yeasts

## O=C(NCc1ccccn1)c1ccc2cccnc2c1O [Example 1, 8-Hydroxy-N-(pyridin-2-ylmethyl)quinoline-7-carboxamide]
[2]; [9]
  MIC: 1 µg/mL (≈ 3.58 µM)
[3]; [10]
  MIC: 4 µg/mL (≈ 14.3 µM)
[4]; [11]
  MIC: 2 µg/mL (≈ 7.16 µM)
[5]; [9]
  MIC: 0.5 µg/mL (≈ 1.79 µM)
[6]; [12]
  MIC: 4 µg/mL (≈ 14.3 µM)
[7]; [13]
  MIC: 2 µg/mL (≈ 7.16 µM)

## Cc1csc(CNC(=O)c2ccc3cccnc3c2O)n1 [Example 12, 8-Hydroxy-N-((4-methylthiazol-2-yl)methyl)quinoline-7-carboxamide]
[2]; [9]
  MIC: 1 µg/mL (≈ 3.34 µM)
[3]; [10]
  MIC: 2 µg/mL (≈ 6.68 µM)
[4]; [11]
  MIC: 1.41 µg/mL (≈ 4.71 µM)
[5]; [9]
  MIC: 1 µg/mL (≈ 3.34 µM)
[6]; [12]
  MIC: 2 µg/mL (≈ 6.68 µM)
[7]; [13]
  MIC: 2.83 µg/mL (≈ 9.45 µM)

## CN(C)c1ccc(CNC(=O)c2ccc3cccnc3c2O)cc1 [Example 4, 8-Hydroxy-N-(4-(dimethylamino)benzyl)quinoline-7-carboxamide]
[2]; [9]
  MIC: 1 µg/mL (≈ 3.11 µM)
[3]; [10]
  MIC: 2.83 µg/mL (≈ 8.81 µM)
[4]; [11]
  MIC: 1 µg/mL (≈ 3.11 µM)
[5]; [9]
  MIC: 0.5 µg/mL (≈ 1.56 µM)
[6]; [12]
  MIC: 1.41 µg/mL (≈ 4.39 µM)
[7]; [13]
  MIC: 0.71 µg/mL (≈ 2.21 µM)

## O=C(Nc1ccc(-n2cncn2)cc1)c1ccc2cccnc2c1O [Example 7, 8-Hydroxy-N-(4-(1H-1,2,4-triazol-1-yl)phenyl)quinoline-7-carboxamide]
[2]; [9]
  MIC: 1.26 µg/mL (≈ 3.8 µM)
[3]; [10]
  MIC: 2 µg/mL (≈ 6.04 µM)
[4]; [11]
  MIC: 2.52 µg/mL (≈ 7.61 µM)
[5]; [9]
  MIC: 1 µg/mL (≈ 3.02 µM)
[6]; [12]
  MIC: 2.83 µg/mL (≈ 8.54 µM)
[7]; [13]
  MIC: 2 µg/mL (≈ 6.04 µM)

## O=C(NCc1ccccc1)c1ccc2ncccc2c1 [NiK-29298, reference compound]
[1]
  Effect of Fe3+ on antifungal activity: not inhibited
[2]; [14]
  MIC: > 128 µg/mL
[3]; [15]
  MIC: 2 µg/mL (≈ 7.62 µM)
[4]; [16]
  MIC: > 128 µg/mL
[5]; [14]
  MIC: 64 to 128 µg/mL (≈ 244 to 488 µM)
[6]; comparison compounds, Table 5
  MIC: 5.65 µg/mL (≈ 21.5 µM)
[7]; [17]
  MIC: 128 µg/mL (≈ 488 µM)
[8]
  Spectrum of antifungal activity on the strains tested: active only on yeasts

## Cc1cc(CNC(=O)c2ccc3cccnc3c2O)no1 [Example 11, 8-Hydroxy-N-((5-methylisoxazol-3-yl)methyl)quinoline-7-carboxamide]
[2]; [9]
  MIC: 2.83 µg/mL (≈ 9.99 µM)
[3]; [10]
  MIC: 2 µg/mL (≈ 7.06 µM)
[4]; [11]
  MIC: 1 µg/mL (≈ 3.53 µM)
[5]; [9]
  MIC: 1 µg/mL (≈ 3.53 µM)
[6]; [12]
  MIC: 2 µg/mL (≈ 7.06 µM)
[7]; [13]
  MIC: 4 µg/mL (≈ 14.1 µM)

## O=C(Nc1ccc2c(c1)OCCO2)c1ccc2cccnc2c1O [Example 9, 8-Hydroxy-N-(2,3-dihydrobenzo[b][1,4]dioxin-6-yl)quinoline-7-carboxamide]
[2]; [9]
  MIC: 1 µg/mL (≈ 3.1 µM)
[3]; [10]
  MIC: 2 µg/mL (≈ 6.21 µM)
[4]; [11]
  MIC: 0.25 µg/mL (≈ 0.776 µM)
[5]; [9]
  MIC: 1 µg/mL (≈ 3.1 µM)
[6]; [12]
  MIC: 2 µg/mL (≈ 6.21 µM)
[7]; [13]
  MIC: 0.5 µg/mL (≈ 1.55 µM)

## Cc1cc(C2CCCCC2)n(O)c(=O)c1 [ciclopirox]
[1]
  Effect of Fe3+ on antifungal activity: completely inhibited

## O=C(NCc1ccc(Br)cc1)c1ccc2cccnc2c1O [Example 2, 8-Hydroxy-N-(4-bromobenzyl)quinoline-7-carboxamide]
[2]; [9]
  MIC: 1.41 µg/mL (≈ 3.95 µM)
[3]; [10]
  MIC: 1.41 µg/mL (≈ 3.95 µM)
[4]; [11]
  MIC: 1.41 µg/mL (≈ 3.95 µM)
[5]; [9]
  MIC: 0.71 µg/mL (≈ 1.99 µM)
[6]; [12]
  MIC: 1.41 µg/mL (≈ 3.95 µM)
[7]; [13]
  MIC: 1 µg/mL (≈ 2.8 µM)

## O=C(NCc1nc2ccccc2s1)c1ccc2cccnc2c1O [Example 14, 8-Hydroxy-N-(benzo[d]thiazol-2-ylmethyl)quinoline-7-carboxamide]
[2]; [9]
  MIC: 1 µg/mL (≈ 2.98 µM)
[3]; [10]
  MIC: 2 µg/mL (≈ 5.96 µM)
[4]; [11]
  MIC: 2 µg/mL (≈ 5.96 µM)
[5]; [9]
  MIC: 0.5 µg/mL (≈ 1.49 µM)
[6]; [12]
  MIC: 2.83 µg/mL (≈ 8.44 µM)
[7]; [13]
  MIC: 1 µg/mL (≈ 2.98 µM)
